According to the supplement of paper PMC8024199:
± gives the standard deviation of the averaged measurements.

Columns and labels:
Test in all cases: drug sensitivity score (DSS) (DSS score); higher = more sensitive (stronger growth inhibition); extreme values may be limits of the assay
[1] = system: Ba/F3 P210-BCR-ABL1 RUNX1-/- (mouse)
Outline: (§1)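 Mouse Ba/F3 cells, either CRISPR/Cas9-edited at a target exon or edited-control clones, were screened against a 528-compound library on pre-printed 384-well plates. Each compound was tested at five concentrations across a 10,000-fold range, with 10,000 cells per well in RPMI with 10% FBS for 72 h at 37 °C and 5% CO2. CellTiter-Glo luminescence was scaled between vehicle and positive-control wells, and each dose-response was summarised as a drug sensitivity score. Scores were averaged over two replicates.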

[2] = system: Ba/F3 P210-BCR-ABL1 RUNX1-/mut (mouse)
Outline: as §1

[3] = system: Ba/F3 P210-BCR-ABL1 RUNX1wt/wt control (mouse)
Outline: as §1

Structure (SMILES) | drug sensitivity score [1] | drug sensitivity score [2] | drug sensitivity score [3]
CC(C)(C)C[C@@H]1N[C@@H](C(=O)N[C@H]2CC[C@H](O)CC2)[C@H](c2cccc(Cl)c2F)[C@]12C(=O)Nc1cc(Cl)ccc12 | 6.65 ± 1.3 | 6.95 ± 1.9 | 0.75 ± 0.35
CC(C)(C)c1cc(NC(=O)Nc2ccc(Oc3ccnc4[nH]c(=O)cnc34)cc2F)n(-c2ccccc2)n1 | 25.9 ± 0.78 | 20.9 ± 0.49 | 17.4 ± 0.21
CC(C)Oc1ccc(C(=O)N[C@H](CNC(=O)CN(C)C)Cc2ccc(-c3cn4cccc([C@H](C)O)c4n3)cc2)cc1Cl | 10.2 ± 0.57 | 7.5 ± 2.4 | 2 ± 0.14
CCOc1ccn(-c2ccc(F)cc2)c(=O)c1C(=O)Nc1ccc(Oc2ccnc(N)c2Cl)c(F)c1 | 0.1 ± 0.14 | 0 | 0
CC[C@@H]1[C@H](F)C(=O)N[C@@H]1COc1nccc2cc(C(N)=O)c(OC)cc12 | 1.3 ± 0.42 | 0.9 ± 1.3 | 0.25 ± 0.35
CCc1cncnc1N1CCN(Cc2nc3ccc(C(F)(F)F)cc3[nH]2)CC1 | 2 ± 1.1 | 0.8 ± 1.1 | 0
CCn1c(-c2nonc2N)nc2c(C#CC(C)(C)O)ncc(OC[C@H]3CCCNC3)c21 | 0.75 ± 1.1 | 1.45 ± 2 | 0
CCn1c(-c2nonc2N)nc2cnc(Oc3cccc(NC(=O)c4ccc(OCCN5CCOCC5)cc4)c3)cc21 | 5.55 ± 1.1 | 4.25 ± 2.3 | 1.45 ± 0.071
CCn1c(C(=O)N(C2CC2)C2CC2)cc2c3c(ncn3C)c(Nc3cc(C)n(C)n3)nc21 | 0.35 ± 0.49 | 0 | 0
CCn1cc(-c2ccnc3[nH]c(-c4cccc(CN(C)C)c4)cc23)c(-c2ccc(NC(=O)N(C)C)cc2)n1 | 14.6 ± 2.2 | 9.15 ± 1.5 | 0.3 ± 0.28
CN(C)CC#Cc1ccc(OCCCc2sc(N3CCc4cccc(C(=O)Nc5nc6ccccc6s5)c4C3)nc2C(=O)O)c(F)c1 | 5.55 ± 0.071 | 5.95 ± 4.7 | 3 ± 0.14
CN(c1ncccc1CNc1nc(Nc2ccc3c(c2)CC(=O)N3)ncc1C(F)(F)F)S(C)(=O)=O | 5.7 ± 0.28 | 7.25 ± 1.9 | 4.8 ± 0.57
CN1CCN(C2CCC(n3cc(-c4ccc(Oc5ccccc5)cc4)c4c(N)ncnc43)CC2)CC1 (stereo not given) | 23.4 ± 0.28 | 17.9 ± 1.1 | 16.6 ± 0.71
CNC(=O)c1ccc(C)c(-n2c(C)cc(OCc3ccc(F)cc3F)c(Br)c2=O)c1 | 0 | 0.05 ± 0.071 | 0
CNC(=O)c1ccccc1Nc1nc(Nc2ccc3c(c2OC)CCC[C@H](N2CCN(CCO)CC2)C3)ncc1Cl | 8.75 ± 0.21 | 8.65 ± 0.21 | 8 ± 0.14
CNS(=O)(=O)Nc1nccc(Cc2c(C)c3ccc(Oc4ncccn4)cc3oc2=O)c1F | 2.4 ± 0.14 | 0.3 ± 0.42 | 0
CNc1nc(-c2ccc3c(N)n[nH]c3c2)cc(N2C[C@@H](C(=O)NC3CCCCC3)CC[C@H]2C)n1 | 7.15 ± 0.35 | 4 ± 2.3 | 0
CNc1ncc2cc(-c3cc(NC(=O)NCCC(C)(C)C)c(F)cc3C)c(C)nc2n1 | 22.3 ± 0.28 | 15.6 ± 0.64 | 9.45 ± 0.21
CONC(=O)c1ccccc1Nc1cc(Nc2cc(C)nn2C(C)C)ncc1Cl | 0.15 ± 0.21 | 0.15 ± 0.21 | 0
CO[C@@H](C)Cn1c(=O)n(C)c2cnc3ccc(-c4cncc(C(C)(C)O)c4)cc3c21 | 12.9 ± 0.14 | 14.3 ± 1.4 | 10.25 ± 0.071
COc1cc2ncnc(Oc3cccc(NC(=O)Nc4cc(C(C)(C)C(F)(F)F)on4)c3)c2cc1OC | 15.8 ± 22 | 13.2 ± 19 | 21.6 ± 0.49
COc1ccc(Cn2ccc3ccc(C(=O)NO)cc32)cc1 | 3.15 ± 1.6 | 4.25 ± 0.78 | 0
COc1ccc2[nH]cc(/C=C3\C(=O)Nc4ccc(NC(=O)CCN5CCCCC5)cc43)c2c1 | 14.8 ± 2.5 | 15.2 ± 4.4 | 6.05 ± 1.1
C[C@@H](Oc1cc(-n2cnc3ccc(CN4CCN(C)CC4)cc32)sc1C(N)=O)c1ccccc1C(F)(F)F | 22.2 ± 1.5 | 20.6 ± 2.3 | 15.8
C[C@@H](Oc1ccc2[nH]nc(/C=C/c3cnn(CCO)c3)c2c1)c1c(Cl)cncc1Cl | 14.5 ± 3.5 | 8.95 ± 1.5 | 6.65 ± 0.21

Structure (SMILES) | drug sensitivity score [1] | drug sensitivity score [2] | drug sensitivity score [3]
C[C@@H]1CN(CC(=O)Nc2ccc3c(c2)Cc2cccc(-c4cc(=O)cc(N5CCOCC5)o4)c2S3)C[C@H](C)O1 | 6.15 ± 1.8 | 5.3 ± 1.3 | 3.05 ± 0.49
C[C@H]1C[C@@H](n2c(Nc3ccc(OC(F)(F)F)cc3)nc3cc(CCC(=O)O)ccc32)CC(C)(C)C1 | 0.8 ± 1.1 | 1.4 ± 2 | 0
C[C@H]1Oc2cc(cnc2N)-c2c(nn(C)c2C#N)CN(C)C(=O)c2ccc(F)cc21 | 0.5 ± 0.71 | 2.2 ± 3.1 | 0
Cc1c(-c2c(-c3ccc(F)o3)sc3ncnc(O[C@H](Cc4ccccc4OCc4ccnn4CC(F)(F)F)C(=O)O)c23)ccc(OCCN2CCN(C)CC2)c1Cl | 1.7 ± 2.4 | 3.45 ± 4.9 | 0
Cc1c(-c2ccc(N3CCc4cccc(C(=O)Nc5nc6ccccc6s5)c4C3)nc2C(=O)O)cnn1CC12CC3CC(CC(C3)C1)C2 | 0 | 0 | 0
Cc1c(Cn2c(C)nc3c(C(=O)O)cc(N4CCOCC4)cc32)cccc1C(F)(F)F | 0 | 0 | 0
Cc1ccc(C(=O)N(CCCN)[C@@H](c2oc3cc(Cl)ccc3c(=O)c2Cc2ccccc2)C(C)C)cc1 | 9.5 ± 6.1 | 6.65 ± 4.7 | 1.9 ± 0.14
Cc1cccc(CC(=O)N2CCc3c2ccc(-c2cn(C)c4ncnc(N)c24)c3F)n1 | 1.85 ± 0.49 | 0.55 ± 0.21 | 2.45 ± 0.35
Cc1nc(Nc2n[nH]c3c2CN(C(=O)N[C@H](CN(C)C)c2ccccc2)C3(C)C)c2sccc2n1 | 40.15 ± 0.35 | 37.2 ± 0.64 | 24.85 ± 0.071
Cc1ncc(Cl)cc1NCc1ccc(C(=O)N[C@@H](CC2CCCC2)C(=O)NC2CC2)s1 | 4.65 ± 0.21 | 4 ± 4.5 | 0
Cc1nn(C)c(COc2ccc(N3CCN(S(=O)(=O)N(C)C)CC3)cc2)c1-c1cccc2c(CCCOc3cccc4ccccc34)c(C(=O)O)n(CCN3CCOCC3)c12 | 6.9 ± 0.85 | 6.6 ± 0.14 | 6.65 ± 0.64
Cn1cc(-c2ccc(F)c(C(F)(F)F)c2)nc1C1CCN(c2ncnc3[nH]ncc23)CC1 | 1.55 ± 1.3 | 0.7 ± 0.99 | 0
N#Cc1ccc(COC[C@H]2O[C@@H](n3c(NCc4ccc(Cl)c(Cl)c4)nc4c(N)ncnc43)[C@H](O)[C@@H]2O)cc1 | 9.1 ± 1.8 | 11.2 ± 4 | 3.55 ± 0.071
NCC(=O)Nc1ccc(-n2nc(C(F)(F)F)cc2-c2ccc3c(ccc4ccccc43)c2)cc1 | 0.6 ± 0.85 | 0 | 0
NC[C@@](O)(c1ccc(Cl)cc1)c1ccc(-c2cn[nH]c2)cc1 | 1.25 ± 1.8 | 0.05 ± 0.071 | 1.55 ± 0.78
Nc1nccc(-c2c(-c3ccc(F)cc3)ncn2C2CCCCC2)n1 | 0.05 ± 0.071 | 0 | 0
Nc1ncnc2c1c(COc1cccc(Cl)c1)nn2C1CCOCC1 | 1.6 ± 1.1 | 1.05 ± 1.1 | 0.05 ± 0.071
O=C(NC[C@H](O)CN1CCc2ccccc2C1)c1cc(NC2COC2)ncn1 | 7.8 ± 1.3 | 5.2 ± 3.5 | 0
O=C(NCc1ccncc1)C12CC3CC(C1)CC(c1ccc(Cl)cc1)(C3)C2 | 4.7 ± 0.57 | 3.3 ± 1.8 | 2.8 ± 0.85
O=C(NOC[C@H](O)CO)c1ccc(F)c(F)c1Nc1ccc(I)cc1F | 7.95 ± 0.92 | 3.85 ± 1.1 | 0.2 ± 0.28
O=C(Nc1ccc2[nH]nc(-c3ccncc3)c2c1)[C@@H]1CCN(CC(=O)N2CCN(c3ccc(-c4ncccn4)cc3)CC2)C1 | 17.8 ± 1.6 | 10.7 ± 1.4 | 5.1 ± 1.3
O=C(O)c1ccc(-c2c[nH]c3ncc(-c4ccccc4)cc23)cc1C1CCCC1 | 2.8 ± 0.57 | 2.5 ± 0.28 | 0.85 ± 0.35
O=C(O)c1ccc(CN2CCC(CN[C@@H]3C[C@H]3c3ccccc3)CC2)cc1 | 1.1 ± 1.1 | 0 | 0
O=C1Cc2cc(C(=O)NC3C[C@H]4CC[C@@H](C3)N4S(=O)(=O)CC3CCN(CCCC(F)(F)F)CC3)c(Cl)cc2N1 (stereo not given in full) | 0 | 0.05 ± 0.071 | 1.35 ± 1.9
O=c1[nH]c(C2CCCN2)nc2c1oc1ccc(Cl)cc12 (stereo not given) | 7.1 ± 1.1 | 2.3 ± 2.3 | 0
